The source of these data is patent US6302119A, “Low odor permanent waving compositions containing a disulfide” (priority 1999, dated 2001).

The pKa is the negative logarithm of the acid dissociation constant.

Entries after “also recorded” stand apart in the source; their conditions may differ.

The conditions of data set [1]: cited from earlier work; for odor: permanent wave; for waving performance: compared to TGA where stated.
The conditions of data set [2]: thiol; cited from earlier work.
For data set [3] the following is noted: in vivo; cited from earlier work.
For data set [4] the following is noted: gas chromatography; waving compositions; cited from earlier work.
Data set [5] in a line: Odor evaluation by 3-4 panelists of activator, waving composition and hair tresses. As to conditions: for Odor rating of waving composition (with activator): GMT alone 3.6; for Odor of hair rating: GMT alone 2.8; for Odor rating of activator (GMT + additive): GMT alone 3.8; for odor effect: additive in GMT, concentration not specified. Here is the method: The disulfide or thiol additive was added in the concentration indicated in Tables 3 and 4, to 200 g of neat glyceryl monothioglycolate (GMr) in a 250 mL beaker.
Odor evaluation was conducted by 3-4 panelists who rated the odors on a scale of 1-5 where 1=no malodor and 5=extreme malodor. […] To this solution was added two tresses of dark brown, virgin hair (1 inch wide, 6 inches long), that had been washed with a 10% solution of SLS and soaked in synthetic sweate^8 at 37° C. for 17 hr, then lightly rinsed. The beaker containing the GMT activator was covered with foil and was allowed to sit for 5 to 10 minutes prior to odor evaluation. The tresses were then allowed to process in the wave composition for 20 minutes at room temperature in a covered beaker. The tresses were rinsed with tap water, towel blotted, then added to 80 mL of Matrix Opticurl Rebonding Neutralizer and processed for 5 minutes. After rinsing, the damp hair was evaluated for odor.
8. Recipe for synthetic sweat: 10 g sodium chloride, 1 g potassium hydrogen phosphate, 0.25 g histidine, lactic acid to adjust pH to 3.2 and water to make 1 L.

Where [6] appears, read: 0.005 wt % in GMT, scale 1-5, 1 = no malodor.
Setting [7] is: 0.005 wt % in GMT, scale 1-5, 1 = no malodor, damp hair after neutralizer.
Where [8] appears, read: 0.005 wt % in GMT, scale 1 = no malodor, 5 = extreme malodor, average of 3-4 panelists.
Where [9] appears, read: 0.01 wt % in GMT, scale 1-5, 1 = no malodor.
Where [10] appears, read: 0.1 wt % in GMT, scale 1-5, 1 = no malodor.

Consider `NCCS` [Cysteamine], for which, in data set [1], the “odor” value was “likened to burnt popcorn or corn chips”. Further, the pKa in data set [2] is reported as 8.6.

For the compound `O=C(CS)OCC(O)CO` (centres unmarked) [GMT, Glyceryl monothioglycolate], in data set [1], the “odor” value was “more pronounced from GMT (glyceryl monothioglycolate) acid waves, than from ATG (ammonium thioglycolate) alkaline waves”. Besides, the pKa in data set [2] is reported as 7.8. Further, the skin irritation entry in data set [3] is reported as “causes skin irritation in some people”.

`CC(S)C(=O)O` (centres unmarked) [Thiolactic acid]: the “waving performance” value in data set [1] is on record as “less efficient than TGA”. Besides, the “toxicology / mildness” value in data set [3] is given as “milder on the epidermis”.

On to `O=C(O)CS` [ammonium thioglycolate], for which, in data set [4], the “hydrogen sulfide in headspace” value is “ppm levels”.

Regarding `N[C@@H](CS)C(=O)O` [cysteine], the “waving performance” value in data set [1] is recorded as “produces weaker curls than TGA”. In addition, the skin irritation result in data set [3] is reported as “is an irritant”.

For the compound `CC(C)CCCCCOC(=O)CSSCC(=O)OCCCCCC(C)C` [di-i-octyldithiodiglycolate], the “odor reduction” value in data set [5] (0.005%) was “removed the sulfur odor from GMT without adding the petroleum odor of the disulfide; also recorded: better than those were from the i-octylthioglycolate; also recorded: the waving composition and the hair smell more neutral, and less chemical than the other solutions; also recorded: essentially no odor left on the hair”. Also, the “panelist preference vs GMT alone, formulation odor and post-perm hair odor” value in data set [5] (0.005% in GMT, duplicate experiments) is listed as “all panelists preferred the GMT containing 0.005% disulfide compared to GMT alone”. Moreover, the “Odor rating of waving composition (with activator)” value (“Odor rating of waving composition” for short) in data set [5] (setting [6]) is reported as 2.1; in data set [5] (setting [9]) it was 3.0; in data set [5] (setting [10]) it was 2.3. In addition, the figures for the “Odor of hair rating” value in data set [5] (setting [7]), in data set [5] (setting [9]) and in data set [5] (setting [10]) were 1.1, 1.8 and 2.8, respectively. The “Odor rating of activator (GMT + additive)” value (“Odor rating of activator” below) came to 2.2 in data set [5] (setting [8]), 2.5 in data set [5] (setting [9]) and 2.5 in data set [5] (setting [10]). For the same compound, the “odor reduction / odor detected” value in data set [5] (0.01%) was “comparable odor results; also recorded: petroleum-like sulfur smell of the disulfide itself”. The “odor effect” value in data set [5] is “reduces the thiol odor associated with a GMT wave in all three categories evaluated”.

On to `CCCCOC(=O)CSSCC(=O)OCCCC` [di-n-butyldithiodiglycolate], for which the figures for the “Odor rating of waving composition” value in data set [5] (setting [6]) and in data set [5] (setting [9]) were 2.0 and 3.8, respectively. Besides, the “Odor of hair rating” value in data set [5] (setting [7]) was 3.5; in data set [5] (setting [9]), 4. For the same compound, the “Odor rating of activator” value in data set [5] (setting [8]) was 2.0; in data set [5] (setting [9]) it was 2.8. The “odor effect” value in data set [5] (listed as Di-butyldithiodiglycolate) is “effectively lowers odor in the activator and in the waving composition”; in data set [5] (listed as dibutyldithioglycolate) it was “less of an odor reducing effect compared to di-i-octyldithiodiglycolate”. The “post-perm odor on hair” value in data set [5] (vs original GMT odor) was “leave a sulfur malodor on the hair that is more disagreeable than the original GMT odor”.

Turning to `CCCCCCCSSCCCCCCC` [di-n-heptyldisulfide, di-n-heptyl disulfide], the “Odor rating of waving composition” value in data set [5] (setting [6]) and in data set [5] (setting [9]) was 5 each time. Further, the “Odor rating of activator” value in data set [5] (setting [8]) and in data set [5] (setting [9]) was 5 each time. Also, the “odor effect” value in data set [5] is recorded as “increased malodor compared to non-disulfide containing formulations”; in data set [5] (listed as diheptyldisulfide), “produces an odor itself that is more disagreeable than the GMT odor alone”.

As to `O=C(O)CS` [thioglycolic acid], in data set [1], the “waving performance” value is given as “good performance” and the “odor” value is “unpleasant odor”. Besides, the “toxicology / mildness” value in data set [3] was “good toxicology”.
